Assay results published in patent US4868177A, “1,2,3,4-tetrahydro-1,9-acridinediamines, pharmaceutical compositions and use” (priority 1988, dated 1989).
Counter-ions that a name gives are not always drawn.

Columns and labels:
acetylcholinesterase = acetylcholinesterase (Homo sapiens, UniProt P22303); assay: Cholinesterase Inhibition Assay (photometric method of Ellman et al.); format: biochemical
mice = assay: Dark Avoidance Assay (reversal of scopolamine induced memory deficit); format: in vivo; settings: retested 24 hours later
Protocol: This utility can also be ascertained by determining the ability of these compounds to restore cholinergically deficient memory in the Dark Avoidance Assay. In this assay mice are tested for their ability to remember an unpleasant stimulus for a period of 24 hours. A mouse is placed in a chamber that contains a dark compartment; a strong incadescent light drives it to the dark compartment, where an electric shock is administered through metal plates on the floor. The animal is removed from the testing apparatus and tested again, 24 hours later, for the ability to remember the electric shock.
If scopolamine, an anticholinergic that is known to cause memory impairment, is administered before an animal's initial exposure to the test chamber, the animal re-enters the dark compartment shortly after being placed in the test chamber 24 hours later. This effect of scopolamine is blocked by an active test compound, resulting in a greater interval before re-entry into the dark compartment.
The results for an active compound are expressed as the percent of a group of animals in which the effect of scopolamine is blocked, as manifested by an increased interval between being placed in the test chamber and re-entering the dark compartment.

acetylcholinesterase, sequence (P22303 32-614): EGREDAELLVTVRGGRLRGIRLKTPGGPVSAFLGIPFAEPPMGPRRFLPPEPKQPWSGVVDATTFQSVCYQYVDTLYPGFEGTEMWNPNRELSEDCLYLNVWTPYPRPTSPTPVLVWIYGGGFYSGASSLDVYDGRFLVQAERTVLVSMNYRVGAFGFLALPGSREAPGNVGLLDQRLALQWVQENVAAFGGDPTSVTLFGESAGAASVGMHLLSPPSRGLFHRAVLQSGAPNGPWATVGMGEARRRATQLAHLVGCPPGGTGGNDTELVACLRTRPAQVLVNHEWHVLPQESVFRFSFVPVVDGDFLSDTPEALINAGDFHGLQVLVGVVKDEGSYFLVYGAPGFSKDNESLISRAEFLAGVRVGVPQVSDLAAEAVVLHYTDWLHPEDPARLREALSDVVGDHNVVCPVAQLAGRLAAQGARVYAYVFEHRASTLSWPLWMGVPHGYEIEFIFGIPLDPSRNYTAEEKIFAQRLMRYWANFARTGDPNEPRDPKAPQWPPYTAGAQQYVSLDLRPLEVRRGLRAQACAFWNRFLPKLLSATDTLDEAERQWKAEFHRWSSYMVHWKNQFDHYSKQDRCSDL

Compound `COc1ccc(CNC2CCCc3nc4ccccc4c(N)c32)cc1OC` (stereo not drawn) [N1-(3,4-Dimethoxybenzyl)-1,2,3,4-tetrahydro-1,9-acridinediamine] has an IC50 (acetylcholinesterase) of 39 µM.
`Nc1c2c(nc3ccccc13)CCCC2NCc1ccccc1` (stereo not drawn) [N1 -Benzyl-1,2,3,4-tetrahydro-1,9-acridinediamine] showed an IC50 (acetylcholinesterase) of 20 µM.
In the case of `Nc1c2c(nc3ccccc13)CCCC2N1CCOCC1` (stereo not drawn) [1-(4-Morpholinyl)-1,2,3,4-tetrahydro-9-acridinamine], the IC50 (acetylcholinesterase) is reported as over 1000 µM.
`Nc1c2c(nc3ccccc13)CCCC2N1CCN(c2ccccc2)CC1` (stereo not drawn) [1-(4-Phenyl-1-piperazinyl)-1,2,3,4-tetrahydro-9-acridinamine, maleate] showed an IC50 (acetylcholinesterase) of over 1000 µM.
`CN1CCN(C2CCCc3nc4ccccc4c(N)c32)CC1` (stereo not drawn) [1-(4-Methyl-1-piperazinyl)-1,2,3,4-tetrahydro-9-acridinamine] gave an IC50 (acetylcholinesterase) of over 1000 µM.
`[N-]=[N+]=NC1CCCc2nc3ccccc3c(N)c21` (stereo not drawn) [1-Azido-1,2,3,4-tetrahydro-9-acridinamine, maleate] was tested, and the IC50 (acetylcholinesterase) was 12 µM.
`CCNC1CCCc2nc3ccccc3c(N)c21` (stereo not drawn) [N1 -Ethyl-1,2,3,4-tetrahydrol, 9-acridinediamine, fumarate, hemi-hydrate] showed an IC50 (acetylcholinesterase) of 4.8 µM.
For `Nc1c2c(nc3ccccc13)CCCC2N1CCCCC1` (stereo not drawn) [1-(1-Piperidinyl)-1,2,3,4-tetrahydro-9-acridinamine], the “% of animals with scopolamine induced memory deficit reversal” value (“% of animals” for short) (mice; 0.16 mg/kg body weight) was 13% and the IC50 (acetylcholinesterase) was 8.4 µM.
`Nc1c2c(nc3ccccc13)CCCC2N1CCCC1` (stereo not drawn) [1-(1-Pyrrolidinyl)-1,2,3,4-tetrahydro-9-acridinamine] showed an IC50 (acetylcholinesterase) of 18 µM.
For `CCCNC1CCCc2nc3ccccc3c(N)c21` (stereo not drawn) [N1 -Propyl-1,2,3,4-tetrahydro-1,9-acridinediamine], the “% of animals” value (mice; 0.31 mg/kg body weight) was 20% and the IC50 (acetylcholinesterase) was 13 µM.
For `CCCCNC1CCCc2nc3ccccc3c(N)c21` (stereo not drawn) [N1 -Butyl-1,2,3,4-tetrahydro-1,9-acridinediamine], the IC50 (acetylcholinesterase) was 49 µM.
In the case of `Nc1c2c(nc3ccccc13)CCCC2NCCc1ccccc1` (stereo not drawn) [N1-(2-Phenylethyl)-1,2,3,4-tetrahydro-1,9-acridinediamine], the IC50 (acetylcholinesterase) is reported as 19 µM.
`CNC(=O)Oc1ccc2c(c1)[C@]1(C)CCN(C)[C@@H]1N2C` [Physostigmine, reference compound] was tested, and the “% of animals” value (mice; 0.31 mg/kg body weight) was 20%.
